Measurements reported in patent publication US12048691B2 (SPERO THERAPEUTICS, INC., priority 2020, dated 2024).
Converted amounts (≈) assume the structure as drawn. Like-named read-outs stand apart in the source and are kept apart here.

How the values were obtained:
Assay type in all cases: cell-based
[1] = test system: P. aeruginosa isolates that overproduced AmpC; assay: Broth microdilution susceptibility of isolates overexpressing AmpC
Description: (§1) Frozen-form broth microdilution panels were manufactured by JMI Laboratories and contained cation-adjusted Mueller-Hinton broth. Quality assurance was performed by sterility checks, colony counts, and testing CLSI recommended quality control reference strains.

[2] = test system: Enterobacterales overproducing AmpC; assay: as above
Description: as §1

E. coli [3] = assay: Susceptibility of E. coli from urinary tract infections, 18 EU countries 2020 (STEWARD)
Description: The study assessed the prevalence of resistance and evaluated the activity of oral tebipenem (TBP) and comparators against EC from urinary tract infections.
Results were interpreted using EUCAST criteria. […] ESBL phenotypes were determined by CLSI criteria and sequenced to identify CTX-M-15 genotype and clonal complex ST131.

[4] = test system: Vancomycin-susceptible Enterococcus faecalis; assay: Broth microdilution against Gram-positive clinical isolates; conditions: E. faecalis; for MIC90: Enterococcus faecalis, 31 isolates
Description: (§2) The purpose of this study was to investigate the in vitro activity of tebipenem and comparator agents, including ertapenem and meropenem, against a recent collection of Gram-positive isolates associated with clinical infections. The susceptibility of 580 Gram-positive organisms were tested, including: Methicillin-susceptible Staphylococcus aureus (MSSA, 489 isolates), Methicillin-susceptible Staphylococcus epidermidis (MSSE, 31), other methicillin-susceptible coagulase-negative staphylococci (MSCONS, 29), and Vancomycin-susceptible Enterococcus faecalis (31). Bacterial species were identified by JMI Laboratories using standard microbiology methods and matrix-assisted laser desorption ionization-time of flight mass spectrometry (Bruker Daltonics, Bremen, Germany). The isolates were collected in 2018 and 2019 as part of the SENTRY surveillance program and selected to be representative of these species with 45.0% from the United States, 44.3% from Europe, 5.3% from the Asia-Pacific region, and 5.3% from Latin America. Isolates are primarily from pneumonia in hospitalized patients (498 isolates; 85.9%), urinary tract infections (42 isolates; 7.2%), and bloodstream infections (38 isolates; 6.6%). Isolates were tested in a central laboratory (JMI Laboratories) for antimicrobial susceptibility using the CLSI M07 (2018) reference broth microdilution method. JMI Laboratories produced frozen-form 96-well panels and used cation-adjusted Mueller-Hinton broth (CA-MHB) as the testing medium. All categorical interpretations used CLSI M100 (2021) and EUCAST v10.0 (2021) breakpoint criteria, where published. Quality control organisms include Escherichia coli ATCC 25922, Escherichia coli ATCC 35218, Enterococcus faecalis ATCC 29212, Pseudomonas aeruginosa ATCC 27853, and Staphylococcus aureus ATCC 29213 were tested concurrently with clinical isolates.

[5] = test system: other methicillin-susceptible coagulase-negative staphylococci (MSCONS); assay: as above
Description: The purpose of this study was to investigate the in vitro activity of tebipenem and comparator agents, including ertapenem and meropenem, against a recent collection of Gram-positive isolates associated with clinical infections. The susceptibility of 580 Gram-positive organisms were tested, including: […] Bacterial species were identified by JMI Laboratories using standard microbiology methods and matrix-assisted laser desorption ionization-time of flight mass spectrometry (Bruker Daltonics, Bremen, Germany). […] Isolates were tested in a central laboratory (JMI Laboratories) for antimicrobial susceptibility using the CLSI […] (2018) reference broth microdilution method. JMI Laboratories produced frozen-form 96-well panels and used cation-adjusted Mueller-Hinton broth (CA-MHB) as the testing medium. […] Quality control organisms include Escherichia coli ATCC 25922, Escherichia coli ATCC 35218, Enterococcus faecalis ATCC 29212, Pseudomonas aeruginosa ATCC 27853, and Staphylococcus aureus ATCC 29213 were tested concurrently with clinical isolates.

[6] = test system: Methicillin-susceptible Staphylococcus epidermidis (MSSE); assay: as above
Description: as §2

[7] = test system: Methicillin-susceptible Staphylococcus aureus (MSSA); assay: as above
Description: as §2

K. pneumoniae = assay: Broth microdilution against US UTI pathogens 2019-2020; conditions: K. pneumoniae (511); for % susceptible; CLSI: cefuroxime: oral breakpoint
Description: (§3) This study assessed the in vitro activity of tebipenem and comparator agents against Enterobacterales (ENT) responsible for UTIs in the US during 2019-2020. A total of 3,576 ENT recovered from urine samples during the 2019-2020 STEWARD Surveillance Program were included in the study. Isolates were collected from medical centers in all 9 US Census Regions and were centrally tested for susceptibility by reference broth microdilution method. MIC interpretation was performed based on CLSI criteria.

P. mirabilis = assay: as above; conditions: P. mirabilis (235); for % susceptible; CLSI: cefuroxime: oral breakpoint
Description: as §3

Enterobacterales (ENT) = assay: as above; conditions: for % susceptible; CLSI: cefuroxime: oral breakpoint
Description: as §3

E. coli [8] = assay: as above; conditions: E. coli (2,339); for % susceptible; CLSI: cefuroxime: oral breakpoint
Description: as §3

[9] = test system: AmpC production in Enterobacterales; assay: AmpC induction (nitrocefin hydrolysis after drug exposure); conditions: tebipenem/imipenem except for C. koseri and S. marcescens
Description: (§4) AmpC induction was determined as follows. Baseline MIC values were determined by broth microdilution method, as described above, for 9 Gram-negative isolates with basal expression of ampC. These isolates were cultured overnight on blood agar plates. A standardized inoculum made from fresh overnight plate cultures was added to flasks containing 50 mL of Luria-Bertani (LB) broth and incubated by shaking at 37° C. to OD600 of 0.3. […] These cultures were incubated under shaking conditions. A 40 mL aliquot of bacterial cultures was sampled at time 0 and 2 hours after drug exposures. Each sample aliquot was harvested by centrifugation and the supernatant was discarded.
(§5) Protein crude extract preparations were made in 200 μL of BugBusterR (Novagen, Darmstadt, Germany) per manufacturer instructions and cell debris was removed by centrifugation. Protein concentrations were determined in each crude extract by standard methodologies.
(§6) AmpC induction was measured by the intensity of β-lactamase hydrolytic activity against 0.1 mM nitrocefin in 0.1 M phosphate buffer at pH 7.0 using spectrophotometry at 482 nm (Δ absorbance/minute/mg of protein). The drug exposure conditions that caused a >4-fold increase in hydrolysis activity compared to the baseline were subjected to postinduction experiments. Briefly, cells were grown under the same conditions as before and tested for susceptibility by broth microdilution.

[10] = test system: AmpC production in P. aeruginosa; assay: as above
Description: as §4, §5, §6

[11] = test system: methicillin-susceptible staphylococci, including MSSA, MSSE, and other MSCONS; assay: Broth microdilution against Gram-positive clinical isolates, summary
Description: as §2, with “JMI Laboratories produced frozen-form 96-well panels and used cation-adjusted Mueller-Hinton broth (CA-MHB) as the testing medium. All categorical interpretations used CLSI M100 (2021) and EUCAST v10.0 (2021) breakpoint criteria, where published. Quality control organisms include Escherichia coli ATCC 25922, Escherichia coli ATCC 35218, Enterococcus faecalis ATCC 29212, Pseudomonas aeruginosa ATCC 27853, and Staphylococcus aureus ATCC 29213 were tested concurrently with clinical isolates.” left out

[12] = P. aeruginosa overproducing AmpC
[13] = Staphylococcus epidermidis, 31 isolates
[14] = Staphylococcus aureus, 489 isolates

C[C@@H](O)[C@H]1C(=O)N2C(C(=O)O)=C(S[C@@H]3CN[C@H](C(=O)N(C)C)C3)[C@H](C)[C@H]12 [Meropenem, meropenem]
CLSI %1 ([1]; P. aeruginosa (32)): 0.0%
CLSI % R ([1]; P. aeruginosa (32)): 0.0%
CLSI % S ([1]; P. aeruginosa (32)): 100.0%
MIC range ([1]; P. aeruginosa (32)): 0.12 to 2 μ/ml
MIC50 [2]: 0.03 µg/mL (≈ 0.0782 µM)
MIC90 [2]: 0.12 µg/mL (≈ 0.313 µM)
CLSI %1 ([2]; Enterobacterales (36)): 0.0%
CLSI % R ([2]; Enterobacterales (36)): 0.0%
CLSI % S ([2]; Enterobacterales (36)): 100.0%
MIC50 ([2]; Enterobacterales (36)): 0.03 μ/ml
MIC90 ([2]; Enterobacterales (36)): 0.12 μ/ml
MIC range ([2]; Enterobacterales (36)): ≤0.015 to 1 μ/ml
MIC90 (E. coli [3]; Escherichia coli, all E. coli (764) from UTIs): 0.03 µg/mL (≈ 0.0782 µM)
Susceptibility rate (E. coli [3]; all E. coli, EUCAST criteria): 100%
MIC90 [4]: > 1 µg/mL

CC1(C)S[C@@H]2[C@H](NC(=O)[C@H](N)c3ccccc3)C(=O)N2[C@H]1C(=O)O [ampicillin]
Susceptibility rate [4]: 100.0%

CC[C@H]1OC(=O)[C@H](C)[C@@H](O[C@H]2C[C@@](C)(OC)[C@@H](O)[C@H](C)O2)[C@H](C)[C@@H](O[C@@H]2O[C@H](C)C[C@H](N(C)C)[C@H]2O)[C@](C)(O)C[C@@H](C)C(=O)[C@H](C)[C@@H](O)[C@]1(C)O [erythromycin]
susceptibility (% S) [5]: 54.8%
Susceptibility rate [6]: 54.8%
Susceptibility rate [7]: 65.6%

trimethoprim-sulfamethoxazole [TMP-SMX]
susceptibility (% S) [5]: 83.9%
MIC50 (K. pneumoniae): ≤ 120 µg/mL
MIC90 (K. pneumoniae): > 4000 µg/mL
% susceptible; CLSI (K. pneumoniae): (79.8) %
MIC50 (P. mirabilis): ≤ 120 µg/mL
MIC90 (P. mirabilis): > 4000 µg/mL
MIC50 (Enterobacterales (ENT); All (3,567)): ≤ 120 µg/mL
MIC90 (Enterobacterales (ENT); All (3,567)): > 4000 µg/mL
% susceptible; CLSI (Enterobacterales (ENT); All (3,567)): (73.9) %
MIC50 (E. coli [8]): ≤ 120 µg/mL
MIC90 (E. coli [8]): > 4000 µg/mL
% susceptible; CLSI (E. coli [8]): (69.2) %
prevalence of resistant phenotype (E. coli [3]; all E. coli): 30.1%

CC(C)(O/N=C(\C(=O)N[C@@H]1C(=O)N2C(C(=O)[O-])=C(C[n+]3ccccc3)CS[C@H]12)c1csc(N)n1)C(=O)O [Ceftazidime]
effect of exposure on production of AmpC [9]: did not seem to affect production of AmpC
effect of exposure on production of AmpC [10]: increased the production of AmpC
CLSI % R ([1]; P. aeruginosa (32)): 71.9%
CLSI % S ([1]; P. aeruginosa (32)): 15.6%
CLSI %1 ([2]; Enterobacterales (36)): 11.4%
CLSI % R ([2]; Enterobacterales (36)): 60.0%
CLSI % S ([2]; Enterobacterales (36)): 28.6%
MIC50 ([2]; Enterobacterales (36), read-out: MIC50): 32 µg/mL (≈ 58.5 µM)
MIC90 ([2]; Enterobacterales (36), read-out: MIC90): > 32 µg/mL
% susceptible; CLSI (K. pneumoniae): (86.1) %
% susceptible; CLSI (P. mirabilis): (98.7) %
% susceptible; CLSI (P. mirabilis; listed as CAZ): 98.7%
% susceptible; CLSI (Enterobacterales (ENT); All (3,567)): (88.1%)
susceptibility (Enterobacterales (ENT); against ENT, EC, and KPN): 86.1-89.3%
MIC90 (Enterobacterales (ENT); against ENT, EC, and KPN, read-out: MIC90): 8 to 16 µg/mL (≈ 14.6 to 29.3 µM)
% susceptible; CLSI (E. coli [8]): (89.3) %

C[C@H]1COc2c(N3CCN(C)CC3)c(F)cc3c(=O)c(C(=O)O)cn1c23 [Levofloxacin, levofloxacin]
% susceptible; CLSI (K. pneumoniae): (87.1) %
% susceptible; CLSI (P. mirabilis): (71.8) %
% susceptible; CLSI (Enterobacterales (ENT); All (3,567)): (79.4) %
% susceptible; CLSI (E. coli [8]): (75.7) %
prevalence of resistant phenotype (E. coli [3]; all E. coli): 20.6%
Susceptibility rate [4]: 80.6%

C[C@@H](O)[C@H]1C(=O)N2C(C(=O)O)=C(SC3CN(C4=NCCS4)C3)[C@H](C)[C@H]12 [Tebipenem, tebipenem]
effect of exposure on production of AmpC [9]: increased production of AmpC
effect of exposure on production of AmpC [10]: increased the production of AmpC
MIC range ([1]; P. aeruginosa (32)): 2 to 8 μ/ml
MIC50 [1, 12]: 4 µg/mL (≈ 10.4 µM)
MIC90 [1, 12]: 4 µg/mL (≈ 10.4 µM)
MIC50 [2]: 0.03 µg/mL (≈ 0.0782 µM)
MIC90 [2]: 0.25 µg/mL (≈ 0.652 µM)
MIC50 ([2]; Enterobacterales (36)): 0.03 μ/ml
MIC90 ([2]; Enterobacterales (36)): 0.25 μ/ml
MIC range ([2]; Enterobacterales (36)): 0.015 to 1 μ/ml
concentration inhibiting all isolates ([2]; Enterobacterales overproducing AmpC): ≤ 1 µg/mL
MIC90 fold lower than ertapenem [5]: 32 fold
MIC50 ([5]; 29 isolates): 0.015 µg/mL (≈ 0.0391 µM)
MIC90 ([5]; 29 isolates): 0.03 µg/mL (≈ 0.0782 µM)
MIC50 and MIC90 values, range over species groups [11]: 0.015 to 0.03 µg/mL
activity fold greater than ertapenem [11]: 16- to 32 fold
MIC90 (Enterobacterales (ENT); against ENT, EC, and KPN): 0.015 to 0.06 µg/mL (≈ 0.0391 to 0.156 µM)
MIC90 fold lower than ertapenem [6]: 32 fold
MIC50 [6, 13]: 0.008 µg/mL (≈ 0.0209 µM)
MIC90 [6, 13]: 0.015 µg/mL (≈ 0.0391 µM)
MIC90 fold lower than ertapenem [4]: 16 fold
MIC90 fold lower than meropenem [4]: at least 2 fold
concentration inhibiting all isolates [4]: ≤ 1 mg/L
MIC90 [4]: 1 µg/mL (≈ 2.61 µM)
MIC90 fold lower than ertapenem [7]: 8 fold
MIC50 [7, 14]: 0.015 µg/mL (≈ 0.0391 µM)
MIC90 [7, 14]: 0.03 µg/mL (≈ 0.0782 µM)
